Legend:
[1] = test system: ED-1-positive macrophages / elastin in aortic wall; assay: Histology and ED-1 macrophage immunohistochemistry of elastase-perfused aortas; type: in vivo, Sprague-Dawley rats
From the text: In other experiments, male rats were randomized to implantation of an estrogen pellet or sham implantation (n=13, each). The former involved the subcutaneous implantation of a 21-day slow-release 0.1-mg 17-β-estradiol pellet (Innovative Research of America, Sarasota, Fla.) in the posterior neck. Sham rats underwent the same implantation procedure without insertion of any pellet. This particular estradiol dose results in serum estradiol levels at 2 to 3 weeks of 44.7±6.1 pg/mL compared with 15.0±2.2 pg/mL in control rats (P<0.05). Rat aortas from both groups were subjected to elastase perfusion 5 days later. The aortas were then removed for study 7 or 14 days after elastase perfusion. All excised aortas were fixed in 10% formalin for 18 hours, followed by immersion in 70% ethanol for 24 hours. Aortas were then imbedded in paraffin and 4-μm sections were prepared with hematoxylin and eosin and Verhoeff-Van Gieson stains. Immunohistochemistry was undertaken after deparaffinization, rehydration, and unmasking using Trilogy (Cell Marque Corp, Hot Springs, Ariz.) in a Princess model pressure cooker (Cell Marque). Endogenous peroxidase activity was then blocked using 3% hydrogen peroxide in methanol. To help ensure that rejection was not occurring in elastase-perfused or transplanted animals, anti-T lymphocyte immunohistochemistry was performed. […]

AAAs = details: apolipoprotein E-deficient murine model; cited from earlier work
[2] = Serum estradiol levels after pellet implantation; type: in vivo; details: at 2 to 3 weeks, 21-day slow-release 0.1-mg pellet s.c.; control rats 15.0±2.2
From the text: In other experiments, male rats were randomized to implantation of an estrogen pellet or sham implantation (n=13, each). The former involved the subcutaneous implantation of a 21-day slow-release 0.1-mg 17-β-estradiol pellet (Innovative Research of America, Sarasota, Fla.) in the posterior neck. Sham rats underwent the same implantation procedure without insertion of any pellet. This particular estradiol dose results in serum estradiol levels at 2 to 3 weeks of 44.7±6.1 pg/mL compared with 15.0±2.2 pg/mL in control rats (P<0.05). Rat aortas from both groups were subjected to elastase perfusion 5 days later. The aortas were then removed for study 7 or 14 days after elastase perfusion.
Male Sprague-Dawley rats (190 g to 210 g) were obtained from Charles River Laboratories. Subcutaneous neck implantation of a 21-day slow release 0.1 mg 17-β-estradiol pellet (Innovative Research of America) was performed under general inhalational anesthesia. This particular estradiol dose results in serum estradiol levels at 2 to 3 weeks of 44.7±6.1 pg/mL compared with 15.0±2.2 pg/mL in control rats (p<0.05). Three weeks after pellet implantation, the infrarenal aorta was explanted under general anesthesia. The aorta was briefly rinsed free of blood and debris with cold 1×PBS containing antibiotics, cut into 1-mm rings, and incubated for 48 hours in 1 mL of serum-free DMEM containing antibiotics and IL-1β. […]

Q: With C[C@]12CC[C@@H]3c4ccc(O)cc4CC[C@H]3[C@@H]1CC[C@@H]2O [17-β-estradiol] as the compound, how does the elastin fragmentation ([1]; estradiol treated male rats' aortas vs sham) read?
A: Its elastin fragmentation is “less prominent”.

Q: And the ED-1-positive cell counts ([1]; male rats receiving estradiol, sham 5.2±0.5, P=0.0006)?
A: The ED-1-positive cell counts was 1.8±0.3 cells/HPF.

Q: And the “development of AAAs” value (AAAs)?
A: The value was “attenuate the development of AAAs”.

Q: And the serum estradiol levels [2]?
A: The serum estradiol levels was 44.7 ± 6.1 pg/mL.

— patent US20090082322A1, “Gender Differences in Experimental Aortic Aneurysm Formation” (THE REGENTS OF THE UNIVERSITY OF MICHIGAN, priority 2004, published 2009)
